The supplement of paper PMC11616607

How the values were obtained:
Test in all cases: drug sensitivity score (DSS) from 5-point dose-response viability curve (DSS (area-under-curve based score)); higher = more sensitive (stronger growth inhibition or killing); extreme values may be limits of the assay
Conditions in all cases: exposure time: 72 h; concentration range: 5 concentrations over 10,000-fold range
[1] = system: HOSE1C
In short: (§1)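 Drugs in DMSO or water were acoustically dispensed (Echo 550) into 384-well plates at five concentrations across a 10,000-fold range. Ovarian cancer and normal ovarian cells (1,500 per well) were then added, incubated for 3 days at 37°C with 5% CO2, and read for viability by CellTiter-Glo luminescence on a PHERAstar FS. From these readings, Breeze software derived a drug sensitivity score per cell line and drug, with higher values meaning more sensitive and zero meaning no response.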

[2] = system: OV90
In short: as §1

[3] = system: Kuramochi
In short: as §1

[4] = system: Ovsaho
In short: as §1

[5] = system: COV362
In short: as §1

[6] = system: COV318
In short: as §1

[7] = system: JHOS2
In short: as §1

[8] = system: OVCAR5
In short: as §1

[9] = system: OVCAR8
In short: as §1

[10] = system: HOSE2C
In short: as §1

[11] = system: OVCAR4
In short: as §1

[12] = system: CAOV3
In short: as §1

SMILES	drug sensitivity score [1]	drug sensitivity score [2]	drug sensitivity score [3]	drug sensitivity score [4]	drug sensitivity score [5]	drug sensitivity score [6]	drug sensitivity score [7]	drug sensitivity score [8]	drug sensitivity score [9]	drug sensitivity score [10]	drug sensitivity score [11]	drug sensitivity score [12]
O=C(Nc1c[nH]nc1-c1nc2ccc(CN3CCOCC3)cc2[nH]1)NC1CC1 [AT9283]	2.4	2.6	3.5	5.2	4.4	1.1	3.5	4.6	3.1	7.4	6.8	16.9
COc1cccc2c1C(=O)c1c(O)c3c(c(O)c1C2=O)C[C@@](O)(C(=O)CO)C[C@@H]3O[C@H]1C[C@H](N)[C@@H](O)[C@H](C)O1 [Epirubicin]	9.6	5.7	4.6	7.1	1	0.7	5.7	5.1	8.9	10.3	2.9	9.9
CC(=O)O[C@H]1C(=O)[C@@]2(C)[C@H]([C@H](OC(=O)c3ccccc3)[C@]3(O)C[C@H](OC(=O)[C@H](O)[C@@H](NC(=O)c4ccccc4)c4ccccc4)C(C)=C1C3(C)C)[C@]1(OC(C)=O)CO[C@@H]1C[C@@H]2O [Paclitaxel]	25.1	14.9	13.8	11.8	8.9	5.7	14.4	21.4	27.6	25	7.8	25.9
O=C(O)CC1CC(c2ccccc2)=NO1 (stereo unspecified) [VGX-1027]	0	0	0	0	0	0	0	0	0	0	0	0
CC[C@H](C)C(=O)O[C@H]1C[C@@H](C)C=C2C=C[C@H](C)[C@H](CC[C@@H]3C[C@@H](O)CC(=O)O3)[C@H]21 [Lovastatin]	7.5	1.3	0.3	0.7	0.1	0	0	0.8	1.7	7.8	0.2	0
CN(C)CC#Cc1ccc(OCCCc2sc(N3CCc4cccc(C(=O)Nc5nc6ccccc6s5)c4C3)nc2C(=O)O)c(F)c1	22.7	19.2	1.6	10.4	1.6	1.3	1.2	4.1	0	6.2	3.5	7.5
CCn1c(-c2nonc2N)nc2c(C#CC(C)(C)O)ncc(OC[C@H]3CCCNC3)c21	1.4	0.6	2.9	0.5	1.3	0	0	0	0	3.7	0	4.3
Cc1cc(Nc2nc(N[C@@H](C)c3ncc(F)cn3)ncc2Cl)[nH]n1 [AZD1480]	0	0	0	0.7	0	0	0	0.5	0	2.8	0.5	0
CCn1c(-c2nonc2N)nc2cnc(Oc3cccc(NC(=O)c4ccc(OCCN5CCOCC5)cc4)c3)cc21	12.7	5.1	2.1	0.9	0.2	5.7	2.8	2.2	4.4	6	0.6	1.6
CC(C)n1nc(-c2ccc3oc(N)nc3c2)c2c(N)ncnc21 [Sapanisertib]	13	15.2	8.9	14.6	3.2	8.2	7.4	12.4	9.8	10.9	10.7	8.4
CC[C@@H]1CN(C(=O)NCC(F)(F)F)C[C@@H]1c1cnc2cnc3[nH]ccc3n12 [Upadacitinib]	0	1.3	0.8	0	0.2	2.1	0	0	0	0	0	0
Cc1cc(-c2nc(-c3ccc(OC(F)(F)F)cc3)no2)nn1Cc1ccnc(N2CCN(C3CC3)CC2)c1 [BAY 87-2243]	0	23.3	2.7	1.6	0	2.7	0	4.8	28.8	0	4.7	8.4
Cc1cnc(NC(=O)Nc2cc(Br)c(C)cc2OC[C@@H]2CNCCO2)cn1 [Rabusertib]	1.8	1.6	0.1	0	0.2	0.2	0	0.1	0	2	1	0.1
Nc1ncnc2c1nc(N)n2[C@@H]1O[C@H](CO)[C@@H](O)[C@H]1O [8-amino-adenosine]	4.1	20.1	24.5	26	20.4	15.1	28.2	23.5	20.5	4.9	19	22.6
CN(C)Cc1c(C(=O)NCCOc2ccc(C(=O)NO)cc2)oc2ccccc12 [Abexinostat]	24.1	16.5	14.6	10	5.6	10.1	11.8	21.7	19.9	20	10.5	13.7
Cn1cnc2c(F)c(Nc3ccc(Br)cc3F)c(C(=O)NOCCO)cc21 [Binimetinib]	0	13.4	3.5	6.2	1.3	0	1.5	7.1	0	0	1.7	7.6
Cc1nn(C)c(COc2ccc(N3CCN(S(=O)(=O)N(C)C)CC3)cc2)c1-c1cccc2c(CCCOc3cccc4ccccc34)c(C(=O)O)n(CCN3CCOCC3)c12	13.7	5.7	7.8	8.6	2.8	5.4	6.3	5.2	7.4	13.7	5.1	4.9
CCNC(=O)C[C@@H]1N=C(c2ccc(Cl)cc2)c2cc(OC)ccc2-n2c(C)nnc21 [Molibresib]	9.8	8.4	9.3	9.3	2.3	3.3	4.1	7.8	5.7	10	4.3	8.4
Cn1cncc1[C@@](N)(c1ccc(Cl)cc1)c1ccc2c(c1)c(-c1cccc(Cl)c1)cc(=O)n2C [Tipifarnib]	9.2	4.7	6.8	7.5	1.7	5.2	3.1	4.3	4.2	3	4.7	3.1
CS(=O)(=O)c1ccc(-c2cnc(N)c(C(=O)Nc3ccccc3)n2)cc1 [VE-821]	4	0	0	1.2	0	0	0	0	0	1.7	0	0
CCOc1ccn(-c2ccc(F)cc2)c(=O)c1C(=O)Nc1ccc(Oc2ccnc(N)c2Cl)c(F)c1	0	0	0	0	0	0	0	0	0	0	0	0
COc1ccc2[nH]cc(/C=C3\C(=O)Nc4ccc(NC(=O)CCN5CCCCC5)cc43)c2c1	4.8	11.7	5.7	4.6	8.7	5.4	5	9.4	8.8	6.1	4.9	6.3
O=c1sn(-c2cccc3ccccc23)c(=O)n1Cc1ccccc1 [Tideglusib]	0	0	0	0.1	0	0	0	0	0	0	0	0
COc1cc2c(Oc3ccc4[nH]c(C)cc4c3F)ncnc2cc1OCCCN1CCCC1 [Cediranib]	0	0	0	0.7	0	0.2	0	0	0	0	0.5	0
CC1CCC(n2c3cnccc3c3cnc(Nc4ccc5c(n4)CCN(C(=O)CO)C5)nc32)CC1 (stereo unspecified) [AMG-925]	0	0	0.1	0.1	0	0	0.5	2.5	0	0	0	0
O=C(NOCCO)c1ccc2cncn2c1Nc1ccc(I)cc1F [GDC-0623]	0	16.3	0.1	0.8	2.3	0	0.6	6.1	0.4	1.3	6.3	5
Clc1ccc(C(c2ccccc2Cl)C(Cl)Cl)cc1 (stereo unspecified) [Mitotane]	0	0.5	0	0	0	0.1	0	0	0	0	0.3	0
COc1nc(N)nc2c1ncn2[C@@H]1O[C@H](CO)[C@@H](O)[C@@H]1O [Nelarabine]	0	1.7	0	0	0	0	0	0	0	0	0	0
